From patent US12661410B2, “Compounds for targeted degradation of RET” (C4 Therapeutics, Inc., priority 2020, dated 2026)
Where a chain is given by its changes, count along the chain named. Read-outs that look alike come from different tables or passages of the source.

Experiments:
RET (658-1114) = target: T1, RET (658-1114) (Homo sapiens, UniProt P07949); assay: HiBiT-Degradation, RET wild-type degradation assay (Nano-Glo HiBiT Lytic), 293T.144 cells; assay type: cell-based; conditions: for DC50 / Emax: 6.0 hours
T1 construct: 658-1114; expressed in transfected cells; host or cells: 293T.144 (293T cells, generated in-house)
T1 sequence (P07949 658-1114): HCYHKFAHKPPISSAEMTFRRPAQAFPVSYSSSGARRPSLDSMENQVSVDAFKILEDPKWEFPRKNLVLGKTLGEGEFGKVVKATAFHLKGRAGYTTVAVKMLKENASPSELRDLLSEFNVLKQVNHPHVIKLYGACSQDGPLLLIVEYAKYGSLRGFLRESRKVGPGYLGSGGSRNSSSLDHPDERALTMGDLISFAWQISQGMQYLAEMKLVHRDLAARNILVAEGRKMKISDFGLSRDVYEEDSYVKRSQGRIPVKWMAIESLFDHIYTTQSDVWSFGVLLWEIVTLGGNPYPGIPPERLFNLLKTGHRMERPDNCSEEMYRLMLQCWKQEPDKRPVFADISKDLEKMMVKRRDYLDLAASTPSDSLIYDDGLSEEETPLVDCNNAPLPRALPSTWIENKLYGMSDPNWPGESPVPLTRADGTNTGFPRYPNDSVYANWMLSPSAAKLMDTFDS
Outline: (§1)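 HEK293T lines expressing HiBiT-tagged RET kinase domain, wild-type (293T.144) or G810R (293T.165), treated 6 h in duplicate, 11-point half-log series from 10 μM top. Lytic HiBiT luminescence read; DC50 and Emax (% protein remaining) from dose-response curves.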

RET(KD: 658-1114 G810R) = target: T2, RET(KD: 658-1114 G810R) (Homo sapiens, UniProt P07949, G810R); assay: HiBiT-Degradation, RET G810R degradation assay (Nano-Glo HiBiT Lytic), 293T.165 cells; assay type: cell-based; conditions: for Emax / DC50: 6.0 hours
T2 construct: 658-1114; expressed in transfected cells; host or cells: 293T.165 (293T cells, generated in-house)
T2 sequence (P07949 658-1114 G810R): T1 sequence (P07949 658-1114) with G153R
Outline: as §1

[1] = HiBiT-Degradation, read-out: 293T.144 RET (658-1114) 6.0 hours (DC50)
[2] = HiBiT-Degradation, read-out: 293T.144 RET (658-1114) 6.0 hours (Emax)
[3] = % remaining protein, read-out: 293T.165 RET(KD: 658-1114 G810R) 6.0 hours (Emax)
[4] = half-maximal degradation concentration, read-out: 293T.165 RET(KD: 658-1114 G810R) 6.0 hours (DC50)
[5] = HiBiT-Degradation, read-out: 293T.165 RET(KD: 658-1114 G810R) 6.0 hours (DC50)
[6] = % remaining protein, read-out: 293T.144 RET (658-1114) 6.0 hours (Emax)
[7] = half-maximal degradation concentration, read-out: 293T.144 RET (658-1114) 6.0 hours (DC50)

SMILES | 293T.144 RET (658-1114) 6.0 hours (IP) [nM] (RET (658-1114); HiBiT-Degradation) | DC50 (RET (658-1114); [1]) | Emax (RET (658-1114); [2]) | Emax (RET(KD: 658-1114 G810R); [3]) | DC50 (RET(KD: 658-1114 G810R); [4]) | 293T.165 RET(KD: 658-1114 G810R) 6.0 hours (Emax) (RET(KD: 658-1114 G810R); HiBiT-Degradation) | 293T.165 RET(KD: 658-1114 G810R) 6.0 hours (IP) [nM] (RET(KD: 658-1114 G810R); HiBiT-Degradation) | DC50 (RET(KD: 658-1114 G810R); [5]) | 293T.144 RET (658-1114) 6.0 hours (IP) [nM] (RET (658-1114)) | Emax (RET (658-1114); [6]) | DC50 (RET (658-1114); [7]) | 293T.165 RET(KD: 658-1114 G810R) 6.0 hours (IP) [nM] (RET(KD: 658-1114 G810R)) | HiBiT-Degradation 293T.144 RET (658-1114) 6.0 hours (IP) [nM] (RET (658-1114); RET wild-type) | DC50 (RET (658-1114); RET wild-type, read-out: HiBiT-Degradation 293T.144 RET (658-1114) 6.0 hours (DC50)) | Emax (RET (658-1114); RET wild-type, read-out: HiBiT-Degradation 293T.144 RET (658-1114) 6.0 hours (Emax)) | HiBiT-Degradation 293T.165 RET(KD: 658-1114 G810R) 6.0 hours (IP) [nM] (RET(KD: 658-1114 G810R); RET G810R) | DC50 (RET(KD: 658-1114 G810R); RET G810R, read-out: HiBiT-Degradation 293T.165 RET(KD: 658-1114 G810R) 6.0 hours (DC50)) | Emax (RET(KD: 658-1114 G810R); RET G810R, read-out: HiBiT-Degradation 293T.165 RET(KD: 658-1114 G810R) 6.0 hours (Emax))
CC(C)NC(=O)C1(C)CCN(c2ccc(-c3cc(-c4ccc(N5CCN(C(=O)CC6(O)CCN(c7ccc(NC8CCC(=O)NC8=O)cc7F)CC6)CC5)cc4)cn4ncc(C#N)c34)cn2)CC1 (stereo not shown) [Compound 32, 1-(5-(3-Cyano-6-(4-(4-(2-(1-(4-((2,6-dioxopiperidin-3-yl)amino)-2-fluorophenyl)-4-hydroxypiperidin-4-yl)acetyl)piperazin-1-yl)phenyl)pyrazolo[1,5-a]pyridin-4-yl)pyridin-2-yl)-N-isopropyl-4-methylpiperidine-4-carboxamide] | ++++ (< 50 nM = ++++) | < 50 nM | < 30% | < 50% | < 50 nM | +++ (<50% = +++) | ++++ (< 50 nM = ++++) | < 50 nM |  |  |  |  |  |  |  |  |  | 
CCC1(C(=O)NC(C)C)CCN(c2ccc(-c3nc(-c4cnn(C5CCN(C(=O)CC6(O)CCN(c7ccc(N[C@@H]8CCC(=O)NC8=O)cc7Cl)CC6)CC5)c4)cn4ncc(C#N)c34)cn2)CC1 (single isomer, unassigned) [Compound 11] | ++++ (< 50 nM = ++++) | < 50 nM | < 30% | < 30% | < 50 nM | ++++ (< 30% = ++++) | ++++ (< 50 nM = ++++) | < 50 nM |  |  |  |  |  |  |  |  |  | 
COc1cc(N2CCN([C@H]3CC[C@H](n4cc(-c5cn6ncc(C#N)c6c(-c6ccc(N7CC8CC(C7)N8Cc7ccccc7S(C)(=O)=O)nc6)n5)cn4)CC3)CC2)c(F)cc1NC1CCC(=O)NC1=O (stereo partly shown) [Compound 217, 6-[1-[4-[4-[4-[(2,6-dioxo-3-piperidyl)amino]-2-fluoro-5-methoxy-phenyl]piperazin-1-yl]cyclohexyl]pyrazol-4-yl]-4-[6-[6-[(2-methylsulfonylphenyl)methyl]-3,6-diazabicyclo[3.1.1]heptan-3-yl]-3-pyridyl]pyrazolo[1,5-a]pyrazine-3-carbonitrile] |  |  |  | < 30% | < 100 nM |  |  |  | ++++ (<50 nM = ++++) | < 30% | < 50 nM | ++++ (<50 nM = ++++) |  |  |  |  |  | 
CCC1(C(=O)NC(C)C)CCN(c2ccc(-c3nc(-c4cnn(C5CN(C(=O)CC6(O)CCN(c7ccc(NC8CCC(=O)NC8=O)cc7F)CC6)C5)c4)cn4ncc(C#N)c34)cn2)CC1 (stereo not shown) [Compound 184, 1-[5-[3-cyano-6-[1-[1-[2-[1-[4-[(2,6-dioxo-3-piperidyl)amino]-2-fluoro-phenyl]-4-hydroxy-4-piperidyl]acetyl]azetidin-3-yl]pyrazol-4-yl]pyrazolo[1,5-a]pyrazin-4-yl]-2-pyridyl]-4-ethyl-N-isopropyl-piperidine-4-carboxamide] |  |  |  | < 30% | < 50 nM |  |  |  | ++++ (<50 nM = ++++) | < 30% | < 50 nM | ++++ (<50 nM = ++++) |  |  |  |  |  | 
N#Cc1cnn2cc(-c3cnn(C4CC5(C4)CN(C(=O)CN4CCC(c6ccc(NC7CCC(=O)NC7=O)cc6F)CC4)C5)c3)cc(-c3ccc(N4CCN(Cc5ccccn5)CC4)nc3)c12 (stereo not shown) [Compound 76, 6-[1-[2-[2-[4-[4-[(2,6-dioxo-3-piperidyl)amino]-2-fluoro-phenyl]-1-piperidyl]acetyl]-2-azaspiro[3.3]heptan-6-yl]pyrazol-4-yl]-4-[6-[4-(2-pyridylmethyl)piperazin-1-yl]-3-pyridyl]pyrazolo[1,5-a]pyridine-3-carbonitrile] |  |  |  | < 30% | < 100 nM |  |  |  |  |  |  |  | ++++ (< 50 nM = ++++) | < 50 nM | < 30% | +++ (<100 nM = +++) | < 100 nM | < 30%

Results, then the molecule that gave them:

293T.144 RET (658-1114) 6.0 hours (IP) [nM] (RET (658-1114); HiBiT-Degradation) | DC50 (RET (658-1114); [1]) | Emax (RET (658-1114); [2]) | Emax (RET(KD: 658-1114 G810R); [3]) | DC50 (RET(KD: 658-1114 G810R); [4]) | 293T.165 RET(KD: 658-1114 G810R) 6.0 hours (Emax) (RET(KD: 658-1114 G810R); HiBiT-Degradation) | 293T.165 RET(KD: 658-1114 G810R) 6.0 hours (IP) [nM] (RET(KD: 658-1114 G810R); HiBiT-Degradation) | DC50 (RET(KD: 658-1114 G810R); [5]) | 293T.144 RET (658-1114) 6.0 hours (IP) [nM] (RET (658-1114)) | Emax (RET (658-1114); [6]) | DC50 (RET (658-1114); [7]) | 293T.165 RET(KD: 658-1114 G810R) 6.0 hours (IP) [nM] (RET(KD: 658-1114 G810R)) | HiBiT-Degradation 293T.144 RET (658-1114) 6.0 hours (IP) [nM] (RET (658-1114); RET wild-type) | DC50 (RET (658-1114); RET wild-type, read-out: HiBiT-Degradation 293T.144 RET (658-1114) 6.0 hours (DC50)) | Emax (RET (658-1114); RET wild-type, read-out: HiBiT-Degradation 293T.144 RET (658-1114) 6.0 hours (Emax)) | HiBiT-Degradation 293T.165 RET(KD: 658-1114 G810R) 6.0 hours (IP) [nM] (RET(KD: 658-1114 G810R); RET G810R) | DC50 (RET(KD: 658-1114 G810R); RET G810R, read-out: HiBiT-Degradation 293T.165 RET(KD: 658-1114 G810R) 6.0 hours (DC50)) | Emax (RET(KD: 658-1114 G810R); RET G810R, read-out: HiBiT-Degradation 293T.165 RET(KD: 658-1114 G810R) 6.0 hours (Emax)) | SMILES
 |  |  | < 50% | < 100 nM |  |  |  | ++++ (<50 nM = ++++) | < 30% | < 50 nM | ++++ (<50 nM = ++++) |  |  |  |  |  |  | N#Cc1cnn2cc(-c3cnn(C4CCN(C(=O)CC5(O)CCN(c6ccc(NC7CCC(=O)NC7=O)cc6F)CC5)CC4)c3)nc(-c3ccc(N4CCN(C(=O)c5cccnc5)CC4)nc3)c12 (stereo not shown) [Compound 106, 6-[1-[1-[2-[1-[4-[(2,6-dioxo-3-piperidyl)amino]-2-fluoro-phenyl]-4-hydroxy-4-piperidyl]acetyl]-4-piperidyl]pyrazol-4-yl]-4-[6-[4-(pyridine-3-carbonyl)piperazin-1-yl]-3-pyridyl]pyrazolo[1,5-a]pyrazine-3-carbonitrile]
++++ (< 50 nM = ++++) | < 50 nM | < 30% | < 30% | < 50 nM | ++++ (< 30% = ++++) | ++++ (< 50 nM = ++++) | < 50 nM |  |  |  |  |  |  |  |  |  |  | CCC1(C(=O)NC(C)C)CCN(c2ccc(-c3cc(-c4cnn(C5CCN(C(=O)CC6(O)CCN(c7ccc(NC8CCC(=O)NC8=O)cc7F)CC6)CC5)c4)cn4ncc(C#N)c34)cn2)CC1 (stereo not shown) [Compound 4, 1-[5-[3-cyano-6-[1-[1-[2-[1-[4-[(2,6-dioxo-3-piperidyl)amino]-2-fluoro-phenyl]-4-hydroxy-4-piperidyl]acetyl]-4-piperidyl]pyrazol-4-yl]pyrazolo[1,5-a]pyridin-4-yl]-2-pyridyl]-4-ethyl-N-isopropyl-piperidine-4-carboxamide]
 |  |  | < 30% | < 50 nM |  |  |  | ++++ (<50 nM = ++++) | < 30% | < 50 nM | ++++ (<50 nM = ++++) |  |  |  |  |  |  | CCC1(C(=O)NC(C)C)CCN(c2ccc(-c3nc(-c4cnn(C5CCN(C(=O)CC6(O)CCN(c7cc(OC)c(NC8CCC(=O)NC8=O)cc7F)CC6)CC5)c4)cn4ncc(C#N)c34)cn2)CC1 (stereo not shown) [Compound 91, 1-[5-[3-cyano-6-[1-[1-[2-[1-[4-[(2,6-dioxo-3-piperidyl)amino]-2-fluoro-5-methoxy-phenyl]-4-hydroxy-4-piperidyl]acetyl]-4-piperidyl]pyrazol-4-yl]pyrazolo[1,5-a]pyrazin-4-yl]-2-pyridyl]-4-ethyl-N-isopropyl-piperidine-4-carboxamide]
++++ (< 50 nM = ++++) | < 50 nM | < 30% | < 50% | < 100 nM | +++ (<50% = +++) | ++++ (< 50 nM = ++++) | < 100 nM |  |  |  |  |  |  |  |  |  |  | N#Cc1cnn2cc(-c3ccc(N4CCN(C(=O)CC5(O)CCN(c6ccc(NC7CCC(=O)NC7=O)cc6)CC5)CC4)cc3)cc(-c3ccc(N4CCN(C(=O)Cc5ccc(F)cn5)CC4)nc3)c12 (stereo not shown) [Compound 49, 6-[4-[4-[2-[1-[4-[(2,6-dioxo-3-piperidyl)amino]phenyl]-4-hydroxy-4-piperidyl]acetyl]piperazin-1-yl]phenyl]-4-[6-[4-[2-(5-fluoro-2-pyridyl)acetyl]piperazin-1-yl]-3-pyridyl]pyrazolo[1,5-a]pyridine-3-carbonitrile]
